Source: article PMC12186256, “Inhibitors of the PqsR Quorum-Sensing Receptor Reveal Differential Roles for PqsE and RhlI in Control of Phenazine Production” (ACS Chemical Biology, 2025)

Assays:
[1] = test system: pphz1-lux in WT P. aeruginosa; assay: P. aeruginosa pphz1-lux bioluminescent reporter assay; format: cell-based, Pseudomonas aeruginosa PA14; settings: for IC50: Pseudomonas aeruginosa, PA14, read-out: IC50 PA14; for IC50 values in P. aeruginosa: pphz1-lux in WT P. aeruginosa
Experimental: Strains were struck onto LB agar and grown overnight at 37 °C. The following day, individual colonies were isolated and transferred into LB liquid medium followed by incubation at 37 °C. After overnight growth, cultures were diluted 1:1000 into M9 medium. 100 μL of these suspensions were aliquoted into wells of 96 well plates (Corning). Plates were incubated for 24 h at 37 °C in a BioSpa Automated Incubator (Agilent). Light production and OD600 were quantified from each well at either 15 or 20 min intervals (Neo2, Agilent). When noted, SPR741 (DC Chemicals) was added at the specified concentration.
One thousand small molecules from the initial screen were selected for retesting, following the identical protocol used for the screen. Of these molecules, 751 were assayed for luciferase inhibition using P. aeruginosa containing ptac-lux instead of pphz1-lux. Any compound that inhibited this reporter by at least 50% was eliminated from the pipeline. One hundred and sixty-seven compounds were further analyzed in dilution series to determine IC50 values with respect to pphz1-lux inhibition. A ten-point, 2-fold serial dilution series was made of each test compound in DMSO solvent. The highest tested concentration was 40 μM. These assays were carried out in 384 well plates (Corning) as described above using both the P. aeruginosa ptac-lux and pphz1-lux reporter strains.

PqsR = molecular target: T1, PqsR (Pseudomonas aeruginosa, UniProt Q9I4X0); assay: E. coli PqsR/ppqsA-lux reporter assay; format: cell-based
T1 construct: expressed in transfected cells; host or cells: Escherichia coli carrying pBAD-pqsR and pCS26-ppqsA-luxCDABE
Excerpt: To determine the target(s) of the 49 hit compounds in P. aeruginosa, we assayed them in a set of E. coli-based reporter strains that read out exclusively RhlR, LasR, or PqsR function. The three assays work by a similar logic. In each case, the gene encoding one of the three quorum-sensing receptors is driven by an arabinose-inducible promoter. The receptor proteins, once made, are activated by exogenously supplied cognate autoinducer. The receptor–autoinducer complexes activate a target gene promoter fused to luciferase (prhlA-lux for RhlR, plasB-lux for LasR, and ppqsA-lux for PqsR). […] To further verify that PqsR is the target of our inhibitors, we assessed whether production of PQS and its precursor, HHQ, declined following treatment of WT P. aeruginosa with one test compound, A7. […] Below, we focus on these 30 compounds that we propose target PqsR. The other 19 compounds will be characterized at a later time.
As previously reported, following overnight growth in LB liquid medium at 37 °C, E. coli reporter strains were diluted 1:1000 in LB liquid medium containing 1% arabinose (PqsR) or 0.1% arabinose (LasR and RhlR). The reporter strain for PqsR activity carried pCS26-ppqsA-luxCDABE and pBAD-pqsR. The reporter strain for LasR activity carried pCS26-plasB-luxCDABE and pBAD-lasR; the reporter strain for RhlR activity carried pCS26-prhlA-luxCDABE and pBAD-rhlR. Test compounds were added at the specified concentrations. To activate PqsR, PQS was added at 100 nM. To activate LasR, 3O-C12-HSL was added at 5 nM. To activate RhlR, C4-HSL was added at 10 μM. To establish IC50 values, 10-point, […] serial dilution series were made starting at 100 μM of each compound. The mixtures were incubated at 37 °C for 24 h (BioSpa, Agilent). Bioluminescence and OD600 were assessed every 15 min (Neo2, Agilent). Readings from the 9 h time point, representing peak signal production, were used to calculate the IC50 values.

WT P. aeruginosa [2] = assay: Quinolone (HHQ, PQS) quantitation by LCMS in culture fluids; format: cell-based, Pseudomonas aeruginosa; settings: WT P. aeruginosa treated with 100 μM compound; compared with ΔpqsR
Experimental: For all assays: the designated P. aeruginosa strains were grown as described above for the pyocyanin inhibition assay. Following overnight growth, culture fluids were separated from cells by centrifugation and filtration.
For quinolone quantitation: cell-free culture fluids were extracted with 2 mL of ethyl acetate that had been acidified with 0.15 mL/L glacial acetic acid. The organic layer was isolated and dried down in vacuo. Dried samples were resuspended in 50 μL of methanol and analyzed by LCMS on an Agilent 1290 Infinity II HPLC connected to an MSD iQ. The injection was 2 μL. The mobile phase was a water–MeCN gradient containing 0.1% formic acid. Chromatography was performed as follows: 2 min hold at 5% […], ramp up to 95% MeCN over 8 min hold for 2 min at 95% MeCN, return to 5% MeCN and re-equilibrate for 1 min. Data were acquired in positive mode scanning between m/z 100–1000. Source parameters for acquisition were as follows: gas temperature 325 °C, gas flow 11 (L/min), capillary voltage 3500 V. Data were processed using Agilent OpenLAB CDS. Peaks were extracted by m/z, quantified by area under the curve. Each compound was compared to a 100 ng/μL commercial standard of PQS or HHQ.

WT P. aeruginosa [3] = assay: Pyocyanin inhibition assay; format: cell-based, Pseudomonas aeruginosa; settings: 100 μM compound
Experimental: WT P. aeruginosa and the ΔpqsE mutant were struck onto LB agar and grown overnight at 37 °C. Individual colonies were diluted into 5 mL of LB liquid medium. Aliquots were transferred into glass tubes containing test compounds with and without 8 μg/mL SPR741. WT P. aeruginosa to which DMSO had been added served as the negative control. The P. aeruginosa ΔpqsE strain to which DMSO had been added served as the positive control. Compounds were tested at 100 μM. Tubes were shaken for 18 h at 37 °C followed by centrifugation at 15,000 rpm for 5 min. Cell-free culture fluids were collected and assessed for pyocyanin by absorbance at 695 nm. Values were normalized by culture density, using absorbance at OD600. Percent inhibition of OD695/OD600 was normalized to the DMSO control.

WT P. aeruginosa [4] = assay: Real time PCR of phzH and phzS; format: cell-based, Pseudomonas aeruginosa; settings: 100 μM compound, qPCR relative to DMSO
Experimental: Following overnight growth in LB at 37 °C with aeration, P. aeruginosa strains were diluted to an OD600 of 0.001 and grown to an OD600 of 3 at 37 °C with aeration. 500 μL of cells were collected by centrifugation and flash frozen. RNA was extracted using RNAeasy Plus mini columns (Qiagen). DNA was removed, followed by cDNA synthesis, using SuperScript IV VILO Master Mix with ezDNase Enzyme (Invitrogen). RNA was quantified using PerfeCTa SYBR Green FastMix Low ROX (Quanta BioSciences). Relative quantity is calculated by ΔΔCt compared to DMSO treatment and the reference gene, rpsL. Outliers with values higher or lower than twice the standard deviation of the mean were removed.

T1 sequence (Q9I4X0 whole entry): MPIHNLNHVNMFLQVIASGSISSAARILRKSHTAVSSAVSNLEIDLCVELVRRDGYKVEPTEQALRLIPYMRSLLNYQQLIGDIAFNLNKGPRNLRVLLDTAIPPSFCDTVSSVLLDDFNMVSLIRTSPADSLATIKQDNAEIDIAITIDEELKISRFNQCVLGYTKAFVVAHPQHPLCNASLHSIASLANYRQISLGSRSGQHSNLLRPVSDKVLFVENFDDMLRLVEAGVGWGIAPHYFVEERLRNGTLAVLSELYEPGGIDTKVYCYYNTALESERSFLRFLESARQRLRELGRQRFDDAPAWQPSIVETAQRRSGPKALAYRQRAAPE

Row | Structure (SMILES) | IC50 [1] [µM] | IC50 (PqsR) [µM] | further results
1 | O=C(NC(C(=O)N1CCOCC1)C12CC3CC(CC(C3)C1)C2)c1ccc([N+](=O)[O-])cc1 (stereo not shown) [Compound B10] | 10.5 ± 1.4 |  | 
2 | CC(C)C(C(=O)O)N1C(=O)C(=Cc2cccc(Br)c2)SC1=S (stereo not shown) [Compound E6] | 9.7 ± 0.49 |  | 
3 | COc1cccc(-c2nc(CC(=O)Nc3ccc(F)cc3)no2)c1 [Compound C2] | 3.2 ± 0.08 | 0.83 ± 0.17 | 
4 | CC(=O)c1cc(-c2ccccc2)n(CC(=O)Nc2nc3ccc(C)cc3s2)c1C [Compound B14] | 11.4 ± 0.9 | 14.5 ± 3.39 | 
5 | CCOC1CCN(C(=O)c2cccc(-c3ccc(OC(F)F)cc3)c2)CC1 [Compound C10] | 4.4 ± 0.16 |  | 
6 | Cc1ccc(C(=O)NCc2nc(-c3ccc(Oc4ccccc4)cc3)no2)cc1 [Compound B9] |  | 2 ± 0.24 | 
7 | Oc1cc(CN2CCC(CCn3cccn3)CC2)nc2ccc(F)cc12 [Compound C9] | 7.6 ± 0.25 | 0.21 ± 0.08 | 
8 | O=C(c1csc2nc(-c3ccc(F)cc3)cn12)N1CCN(c2ccccc2F)CC1 [Compound E3] | 5 ± 0.26 |  | 
9 | O=S(=O)(c1ccc(-c2cc(C(F)(F)F)n[nH]2)s1)N1CC=C(c2ccccc2)CC1 [Compound B6] | 0.4 ± 0.03 | 0.55 ± 0.12 | IC50 values in P. aeruginosa [1]: submicromolar
10 | CC(C)Oc1ccc(N2CC(C(=O)Nc3cccc(Cl)c3Cl)CC2=O)cc1 (stereo not shown) [Compound B2] | 4.9 ± 0.26 | 4.7 ± 0.56 | 
11 | N#Cc1cnc(SCC(=O)Nc2ccc(Cl)c(Br)c2)nc1N [Compound C7] | 2.4 ± 0.4 | 0.67 ± 0.08 | 
12 | N#Cc1cccc(CNCC2Cn3nnc(-c4ccccc4)c3CO2)c1 (stereo not shown) [Compound A9] | 38 ± 2.4 | 3.9 ± 0.65 | 
13 | Cc1cc(Br)ccc1OCCn1cnc2ccccc2c1=O [Compound D4] | 1.1 ± 0.028 | 1.23 ± 0.31 | 
14 | N#CCc1ccc(NC(=O)CNc2ccc(C(F)(F)F)cc2)cc1 [Compound D2] | 2.3 ± 0.02 | 1.32 ± 0.17 | 
15 | O=S(=O)(Nc1ccc(F)cc1Cl)c1ccc(-c2cc(C(F)(F)F)n[nH]2)s1 [Compound B7] | 3.5 ± 0.36 | 3.8 ± 0.3 | 
16 | O=C(Nc1ccc(Cl)c(Cl)c1)c1ccc(=O)n(Cc2cccc(F)c2)n1 [Compound E5] | 2.3 ± 0.12 | 2.87 ± 0.84 | 
17 | N#Cc1cc(CN2CCC3(CC2)CC(Nc2ncccn2)C3)ccc1F [Compound A7] | 2.2 ± 0.23 | 0.51 ± 0.16 | production of HHQ (WT P. aeruginosa [2]): reduced to the level made by the P. aeruginosa ΔpqsR strain; production of PQS (WT P. aeruginosa [2]): reduced to the level made by the P. aeruginosa ΔpqsR strain
18 | Cc1nn(-c2ccccc2)c(-n2cccc2)c1C(=O)N1CCC(C(=O)NCCc2ccccc2)CC1 [Compound B3] | 2 ± 0.28 | 5.2 ± 1.7 | 
19 | O=C(Nc1nnc(C(F)(F)F)s1)C1CC(=O)N(CCc2c[nH]c3ccc(Cl)cc23)C1 (stereo not shown) [Compound B4] | 2.8 ± 0.1 | 0.59 ± 0.07 | 
20 | COc1ccc(Cl)cc1C(=O)NCC(O)C1CCCCC1 (stereo not shown) [Compound D3] | 8.2 ± 0.77 | 8.39 ± 0.075 | 
21 | Cc1noc(CN2CCCC(CCC(=O)Nc3ccc(C(F)(F)F)cc3)C2)n1 (stereo not shown) [Compound C11] | 2.8 ± 0.19 | 2.94 ± 0.83 | 
22 | O=C(CN1CCC(c2nc(-c3cccc(F)c3)no2)CC1)Nc1ccccc1 [Compound B15] | 8.6 ± 0.19 | 7.04 ± 1.18 | 
23 | O=C(Cn1cnc2c(oc3ccccc32)c1=O)N1CCC(Cc2ccccc2)CC1 [Compound B12] | 10.5 ± 1.2 | 14.5 ± 1.9 | 
24 | Cc1cc(Br)ccc1NC(=O)CNC(=O)c1ccc(-n2cnc3ccccc32)cc1 [Compound D1] | 3.9 ± 0.32 | 1.99 ± 0.88 | pyocyanin inhibition without versus with SPR741 (WT P. aeruginosa [3]): improved pyocyanin inhibition in the absence of SPR741 compared to in its presence
25 | O=C(NCc1cccs1)C1CCN(c2ccc3nnc(-c4ccccc4F)n3n2)CC1 [Compound B13] |  | 11.9 ± 0.98 | 
26 | O=C(NC1CCN(Cc2cc(F)cc(F)c2)CC1)c1cc(C(F)(F)F)n[nH]1 [Compound C8] | 3.9 ± 0.38 | 0.27 ± 0.04 | 
27 | N#Cc1ccc(NCC2CCC3(COCCN(Cc4ccccc4OC(F)F)C3)O2)nc1 (stereo not shown) [Compound A8] | 0.8 ± 0.2 | 1.9 ± 0.44 | phzH expression (WT P. aeruginosa [4]): reduction only to the level displayed by the ΔpqsE mutant; phzS expression (WT P. aeruginosa [4]): reduced to the level in the ΔpqsE strain; IC50 values in P. aeruginosa [1]: submicromolar
28 | O=C(NCc1ccc(OC(F)F)cc1)c1ccc(C2SCCS2)cc1 [Compound D6] | 0.53 ± 0.028 | 0.42 ± 0.045 | IC50 values in P. aeruginosa [1]: submicromolar
29 | O=C(Cn1nnc(-c2ccccc2)n1)Nc1ccc(Br)cc1 [Compound C6] |  | 0.37 ± 0.08 | 
30 | CCOc1ccc(-n2nnnc2CNC(=O)Nc2cccc(Cl)c2)cc1 [Compound B8] | 6.4 ± 1 | 2.37 ± 0.77 | 
